# Patent EP0230023B1, “Pharmaceutical compositions for the enhancement of wound healing” (MARION MERRELL DOW INC., priority 1985, dated 1987)
# Where “and” joins values, the source holds several entries; their conditions need not be identical. Equal values may be shown once.
# What was measured:
# rabbit corneas = test: Rabbit cornea assay for angiogenesis; type: in vivo
# Experimental: This may offer an explanation for the dense vascular bed that characterized the granulation tissue in the in-vivo experiments. Sucrose octasulate at concentrations of 0.1 to 100 µg/ml was encapsulated in Hydron and implanted in rabbit corneas. The method used was that described in Surgery 96:48-54, 1984. The […] solution (sucrose octasulfate or PBS) was mixed with an equal volume of Hydron and allowed to polymerize under reduced pressure. […] Eyes were evaluated at days 1 through 14 post-implantation for gross inflammation and, as described by Hunt, et al, in Surgery 96:48-54, 1984, for angiogenesis. Corneal neovascularization was graded on a scale of 0-4+ (integers only being assigned). Zero denotes a normal eye with no ingrowth on limbal vessels into the corneal stroma; 1+, up to 1 mm of capillary ingrowth in a localized arc adjacent to the injection site; 2+, […] ingrowth; 3+, 2-3 mm ingrowth; and 4+, 3 mm or greater ingrowth in a wide arc along the limbal edge toward the injection site. […] To ascertain that the observed angiogenesis was not secondary to an inflammatory process some eyes with a positive response were removed and stained with H&E and a nonspecific esterase stain as early as two days after implantation.
# collagen = test: Sucrose octasulfate induced collagen fibrillogenesis (stopped-flow turbidity); type: biochemical
# Excerpt: Sucrose octasulfate-induced collagen fibril formation was studied in a spectrophotometer equipped with a stopped-flow apparatus. […]
structure (smiles),measurement,setting,value
"O=S(=O)([O-])OC[C@H]1O[C@@](COS(=O)(=O)[O-])(O[C@H]2O[C@H](COS(=O)(=O)[O-])[C@@H](OS(=O)(=O)[O-])[C@H](OS(=O)(=O)[O-])[C@H]2OS(=O)(=O)[O-])[C@@H](OS(=O)(=O)[O-])[C@@H]1OS(=O)(=O)[O-].[K+].[K+].[K+].[K+].[K+].[K+].[K+].[K+] [Sucrose Octasulfate, potassium sucrose octasulfate]",extent of angiogenesis,rabbit corneas; 0.1 µg/ml,negative
same,No. Positive Responses,"rabbit corneas; 0.1 µg/ml in Hydron, 5 corneas implanted",0
same,No. Positive Responses,"rabbit corneas; 1 µg/ml in Hydron, 6 corneas implanted",1
same,No. Positive Responses,"rabbit corneas; 10 µg/ml in Hydron, 5 corneas implanted",4
same,No. Positive Responses,"rabbit corneas; 100 µg/ml in Hydron, 9 corneas implanted",8
same,Angiogenesis,"rabbit corneas; grade on scale 0-4+ in rabbit cornea, potassium salts",4
same,angiogenic response,rabbit corneas; implantation of 10 and 100 µg/ml,most potent angiogenic response
same,extent of angiogenesis,"rabbit corneas; lower concentration, 1.0 g/ml as printed",decreased
same,moles of sucrose octasulfate per mole of collagen initiating the reaction,collagen,five
same,critical concentration (lower concentration required for initiation of fibrillogenesis of collagen),"collagen; collagen 0.5 mg/ml, pH 7.4",0.01 mg/ml
same,fibrillogenesis at pH 3.0 compared with pH 7.4,collagen; pH 3.0,Identical results
same,time to dissociation of the transient complex,"collagen; sucrose octasulfate 0.01 mg/ml, collagen 0.5 mg/ml",≤ 100 ms
same,time of formation of collagen fibrils,"collagen; sucrose octasulfate 0.2 mg/ml, collagen 0.5 mg/ml, pH 7.4",60 to 70 ms and 60 to 75 ms
